Assay results: patent US20030198662A1, “Transdermal administration of N-(2,5-disubstituted phenyl)-N'-(3-substituted phenyl)-N'-methyl guanidines” (priority 1999, published 2003)

Assay: Electrotransport drug flux in automated permeation cells (zero-current passive phase, then electrotransport phase)
Assay type: in vitro ADME
Details: aqueous donor solution about 15 mg/mL drug HCl salt, receptor Dulbecco's phosphate buffered saline pH 7.4
Experimental: Automated permeation cells used for passive permeation studies were also used for the assessment of electrotransport drug flux. The donor compartment contained the silver anode while the receptor compartment contained the silver chloride cathode. The electrodes were connected to a Maccor power source. An aqueous donor solution containing about 15 mg/mL of the drug HCl salt was utilized. The receptor solution was Dulbecco's phosphate buffered saline ([…]) pH 7.4. The first 16 hours served as a zero current passive phase after which the power source was turned on. The electrotransport phase during which a current of 0.2 mA was supplied (to result in a current density of 0.1 mA/cm^2) lasted 24 hours. Receptor solution was automatically collected every 4 hours during the passive phase and every hour during the electrotransport phase, and analyzed for drug by HPLC. Flux, as μg/cm^2h, was calculated, as was the average steady-state flux, which included data points where delivery had reached a nearly constant value.

CSc1cccc(N(C)C(=N)Nc2cc(SC)ccc2Cl)c1 [CNS 5161, N-(2-chloro-5-(methylthio)phenyl)-N′-(3-(methylthio)phenyl)-N′-methyl guanidine]
Average steady-state flux during electrotransport (current 0.2 mA, current density 0.1 mA/cm^2, 24 hours): 53±2.5 μg/cm^2h | Flux during zero-current passive phase (initial 16 hours, zero current): about 0.02 μg/cm^2h
